For 24 compounds, IC50 and Ki results are on record in patent US11731943B2, “Therapeutic compounds, compositions and methods of use thereof” (priority 2016, dated 2023).

Test [1] relates to JAK1-dependent STAT6 phosphorylation downstream of IL-13 stimulation in BEAS-2B human bronchial epithelial cells. Put plainly: JAK1 pathway assay in BEAS-2B cells (IL-13-pSTAT6, MSD). It counts as cell-based. The conditions noted are these: BEAS-2B cells, IL-13 stimulation, read-out: IL-13 p-STAT6 BEAS-2B IC50.
Test [2] addresses isolated recombinant JAK1 kinase domain (Homo sapiens (Human), UniProt P23458). Put plainly: JAK1 enzyme assay (Caliper LabChip, Ki). It counts as biochemical. The essentials:
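Ki derived via Morrison tight-binding model, ATP-competitive correction applied. Read-out: product/total ratio of a 5-carboxyfluorescein-tagged JAK3 peptide separated on Caliper LabChip after phosphorylation by isolated human JAK1 kinase domain (22 °C, 30 min; EDTA quench, 50 mM final).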

Test [3] has as its target isolated recombinant JAK2 kinase domain (Homo sapiens (Human), UniProt O60674). Description: JAK2 enzyme assay (Caliper LabChip, Ki). It counts as biochemical. The essentials:
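Caliper LabChip readout of phosphorylated product as a fraction of total substrate, a fluorescently N-terminally labelled JAK3-derived peptide. Isolated human JAK kinase domains were incubated 30 min at 22 °C before EDTA quench (50 mM final).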

Read-outs that look alike come from different tables or passages of the source.

Chain of isolated recombinant JAK1 kinase domain (P23458 875-1153): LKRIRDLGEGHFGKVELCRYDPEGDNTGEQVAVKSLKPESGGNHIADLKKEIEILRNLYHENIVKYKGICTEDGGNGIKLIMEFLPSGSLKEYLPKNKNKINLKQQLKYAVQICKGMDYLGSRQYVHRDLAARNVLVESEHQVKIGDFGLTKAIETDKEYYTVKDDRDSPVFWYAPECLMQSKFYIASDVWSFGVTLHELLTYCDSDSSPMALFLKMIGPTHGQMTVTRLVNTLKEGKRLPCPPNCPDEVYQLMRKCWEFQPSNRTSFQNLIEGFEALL
Chain of isolated recombinant JAK2 kinase domain (O60674 849-1124): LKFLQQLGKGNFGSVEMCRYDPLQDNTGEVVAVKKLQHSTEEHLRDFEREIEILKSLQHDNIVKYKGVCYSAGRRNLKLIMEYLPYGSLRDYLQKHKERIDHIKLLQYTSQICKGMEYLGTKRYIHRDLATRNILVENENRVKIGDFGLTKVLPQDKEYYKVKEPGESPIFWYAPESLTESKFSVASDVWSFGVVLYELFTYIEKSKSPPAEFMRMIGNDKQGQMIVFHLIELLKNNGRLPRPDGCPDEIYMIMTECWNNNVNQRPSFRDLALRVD

As usually defined, the IC50 is the concentration at which inhibition is half-maximal. A word on the Ki: it is a dissociation constant, usually derived from enzyme kinetics or from competition with a known ligand. Consider `N#CCC1(n2cc(C(N)=O)c(NC(=O)C3CC3)n2)CCN(Cc2ccc(I)cc2)CC1` [Example 55], for which the IC50 in test [1] (Homo sapiens, BEAS-2B) amounted to 98 nM. Moreover, the results for the Ki in test [2] (read-out: JAK1 Ki) and in test [3] were 3.2 nM and 31.4 nM, respectively.
Take `COC1CN([C@H]2CC[C@@](CC#N)(n3cc(C(N)=O)c(NC(=O)C4CC4)n3)CC2)C1` [Example 102]: the IC50 in test [1] (Homo sapiens, BEAS-2B) amounted to 933 nM. The results for the Ki in test [2] and in test [3] were 3.3 nM and 31.8 nM, respectively.
`N#CCC1(n2cc(C(N)=O)c(NC(=O)C3CC3)n2)CCN(Cc2ccc(-c3ccc(C(F)(F)F)cc3)nc2)CC1` [Example 166, 1-[4-(cyanomethyl)-1-[[6-[4-(trifluoromethyl)phenyl]-3-pyridyl]methyl]-4-piperidyl]-3-(cyclopropanecarbonylamino) pyrazole-4-carboxamide]: in test [1] (Homo sapiens, BEAS-2B), the IC50 is 68 nM. In addition, the inhibition constant (Ki) was determined as 2.2 nM in test [2] (read-out: JAK1 Ki) and 80 nM in test [3].
For `N#CCC1(n2cc(C(N)=O)c(NC(=O)C3CC3C#N)n2)CCN(Cc2cc(O)c(-c3ccccc3)cc2F)CC1F` (stereo not drawn) [Example 240, 3-[(2-cyanocyclopropanecarbonyl)amino]-1-[4-(cyanomethyl)-3-fluoro-1-[(2-fluoro-5-hydroxy-4-phenyl-phenyl)methyl]-4-piperidyl]pyrazole-4-carboxamide], in test [1] (Homo sapiens, BEAS-2B), the IC50 came out at 71 nM. Moreover, the inhibition constant Ki was determined as 0.19 nM in test [2] (read-out: JAK1 Ki) and 0.29 nM in test [3].
On the same counts, the results for `COC(=O)Nc1nn(C2(CC#N)CCN(Cc3ccc(C4=CCCC4)cc3)CC2F)cc1C(N)=O` (stereo not drawn) [Example 268, methyl N-[4-carbamoyl-1-[4-(cyanomethyl)-1-[[4-(cyclopenten-1-yl)phenyl]methyl]-3-fluoro-4-piperidyl]pyrazol-3-yl]carbamate] are 43 nM, 0.9 nM and 1.9 nM.
Regarding `C=Cc1cc(F)c(CN2CCC(CC#N)(n3cc(C(N)=O)c(NC(=O)OC)n3)C(F)C2)cc1O` (stereo not drawn) [Example 285, methyl N-[4-carbamoyl-1-[4-(cyanomethyl)-3-fluoro-1-[(2-fluoro-5-hydroxy-4-vinyl-phenyl)methyl]-4-piperidyl]pyrazol-3-yl]carbamate], the IC50 in test [1] (Homo sapiens, BEAS-2B) turned out to be 22 nM. Moreover, the Ki turned out to be 0.19 nM in test [2] (read-out: JAK1 Ki) and 0.23 nM in test [3].
Turning to `N#CC[C@]1(n2cc(C(N)=O)c(NC(=O)C3CC3)n2)CC[C@@H](N2CC(OCc3ccccc3)(C(F)(F)F)C2)CC1` [Example 133], the IC50 in test [1] (Homo sapiens, BEAS-2B) was found to be 162 nM. For the same compound, the inhibition constant Ki in test [2] (read-out: JAK1 Ki) stood at 2.5 nM; in test [3], 15.6 nM.
For the compound `COc1cccc(-c2ccc(CN3CCC(CC#N)(n4cc(C(N)=O)c(NC(=O)C5CC5)n4)CC3)cc2)c1` [Example 152, 1-[4-(cyanomethyl)-1-[[4-(3-methoxyphenyl)phenyl]methyl]-4-piperidyl]-3-(cyclopropanecarbonylamino) pyrazole-4-carboxamide], the IC50 in test [1] (Homo sapiens, BEAS-2B) amounted to 126 nM. Further, the Ki in test [2] (read-out: JAK1 Ki) is 1.3 nM; in test [3] it was 7.8 nM.
With `N#CCC1(n2cc(C(N)=O)c(NC(=O)C3CC3C#N)n2)CCN(Cc2ccc(-c3ccccc3)nc2F)CC1F` (stereo not drawn) [Example 227, 3-[(2-cyanocyclopropanecarbonyl)amino]-1-[4-(cyanomethyl)-3-fluoro-1-[(2-fluoro-6-phenyl-3-pyridyl)methyl]-4-piperidyl]pyrazole-4-carboxamide], the half-maximal inhibitory concentration (IC50) in test [1] (Homo sapiens, BEAS-2B) is 54 nM. In addition, the results for the Ki in test [2] (read-out: JAK1 Ki) and in test [3] were 0.31 nM and 0.63 nM, respectively.
For `C#Cc1ccc(CN2CCC(CC#N)(n3cc(C(N)=O)c(NC(=O)C4CC4)n3)C(F)C2)c(Cl)c1` (stereo not drawn) [Example 280, 1-[1-[(2-chloro-4-ethynyl-phenyl)methyl]-4-(cyanomethyl)-3-fluoro-4-piperidyl]-3-(cyclopropanecarbonylamino) pyrazole-4-carboxamide], the IC50 in test [1] (Homo sapiens, BEAS-2B) was 16 nM. The Ki stood at 0.3 nM in test [2] (read-out: JAK1 Ki) and 0.4 nM in test [3].
As for `N#CCC1(n2cc(C(N)=O)c(NC(=O)C3CC3)n2)CCN(Cc2ccc(Br)cc2)CC1` [Example 52], the IC50 in test [1] (Homo sapiens, BEAS-2B) is 102 nM. For the same compound, the figures for the Ki in test [2] (read-out: JAK1 Ki) and in test [3] were 2.3 nM and 20.9 nM, respectively.
Turning to `COC(=O)Nc1nn(C2(CC#N)CCN(Cc3ccc(C4CC4)cc3)CC2F)cc1C(N)=O` (stereo not drawn) [Example 281, methyl N-[4-carbamoyl-1-[4-(cyanomethyl)-1-[(4-cyclopropylphenyl)methyl]-3-fluoro-4-piperidyl]pyrazol-3-yl]carbamate], in test [1] (Homo sapiens, BEAS-2B), the IC50 came out at 36 nM. Moreover, the Ki stood at 1.1 nM in test [2] (read-out: JAK1 Ki) and 2.2 nM in test [3].
With `N#CCC1(n2cc(C(N)=O)c(NC(=O)C3CC3)n2)CCC(Nc2ccc(-c3ccccc3)cc2)CC1` (stereo not drawn) [Example 245, 1-[1-(cyanomethyl)-4-(4-phenylanilino)cyclohexyl]-3-(cyclopropanecarbonylamino) pyrazole-4-carboxamide], in test [1] (Homo sapiens, BEAS-2B), the IC50 is 14 nM. Also, the inhibition constant Ki stood at 0.23 nM in test [2] (read-out: JAK1 Ki) and 0.92 nM in test [3].
On to `N#CCC1(n2cc(C(N)=O)c(NC(=O)C3CC3)n2)CCN(Cc2ccc(-c3cccc(F)c3)cc2)CC1` [Example 143, 1-[4-(cyanomethyl)-1-[[4-(3-fluorophenyl)phenyl]methyl]-4-piperidyl]-3-(cyclopropanecarbonylamino) pyrazole-4-carboxamide], for which, in test [1] (Homo sapiens, BEAS-2B), the IC50 came out at 49 nM. For the same compound, the Ki in test [2] (read-out: JAK1 Ki) was 0.7 nM; in test [3], 5.5 nM.
As for `CCc1ccc(-c2ccc(CN3CCC(CC#N)(n4cc(C(N)=O)c(NC(=O)C5CC5C#N)n4)C(F)C3)cc2O)cc1` (stereo not drawn) [Example 222, 3-[(2-cyanocyclopropanecarbonyl)amino]-1-[4-(cyanomethyl)-1-[[4-(4-ethylphenyl)-3-hydroxy-phenyl]methyl]-3-fluoro-4-piperidyl]pyrazole-4-carboxamide], the IC50 in test [1] turned out to be 52 nM. The Ki came out at 0.18 nM in test [2] (read-out: JAK1 Ki) and 0.43 nM in test [3].
In the case of `Cc1c(CN2CCC(CC#N)(n3cc(C(N)=O)c(NC(=O)C4CC4)n3)CC2)ccc(-c2ccccc2)c1O` [Example 194, 1-[4-(cyanomethyl)-1-[(3-hydroxy-2-methyl-4-phenyl-phenyl)methyl]-4-piperidyl]-3-(cyclopropanecarbonylamino) pyrazole-4-carboxamide], in test [1] (Homo sapiens, BEAS-2B), the half-inhibitory concentration (IC50) turned out to be 50 nM. Also, the Ki in test [2] (read-out: JAK1 Ki) turned out to be 0.63 nM; in test [3], 2.2 nM.
On to `CCc1ccc(-c2ccc(CN3CCC(CC#N)(n4cc(C(N)=O)c(NC(=O)OC)n4)C(F)C3)cc2)o1` (stereo not drawn) [Example 232, methyl N-[4-carbamoyl-1-[4-(cyanomethyl)-1-[[4-(5-ethyl-2-furyl)phenyl]methyl]-3-fluoro-4-piperidyl]pyrazol-3-yl]carbamate], for which the IC50 in test [1] (Homo sapiens, BEAS-2B) turned out to be 20 nM. Moreover, the Ki in test [2] (read-out: JAK1 Ki) was found to be 0.32 nM; in test [3], 0.89 nM.
On the same counts, the results for `COC(=O)Nc1nn(C2(CC#N)CCN(Cc3cc(O)c(-c4ccoc4)cc3F)CC2F)cc1C(N)=O` (stereo not drawn) [Example 237, methyl N-[4-carbamoyl-1-[4-(cyanomethyl)-3-fluoro-1-[[2-fluoro-4-(3-furyl)-5-hydroxy-phenyl]methyl]-4-piperidyl]pyrazol-3-yl]carbamate] are 27 nM, 0.22 nM and 0.3 nM.
As for `COC(=O)Nc1nn(C2(CC#N)CCN(Cc3ccc(-c4ccccc4)c(O)c3)CC2)cc1C(N)=O` [Example 186, Methyl (4-carbamoyl-1-(4-(cyanomethyl)-1-((2-hydroxy-[1,1′-biphenyl]-4-yl) Methyl)piperidin-4-yl)-1H-pyrazol-3-yl)carbamate], in test [1] (Homo sapiens, BEAS-2B), the IC50 is 68 nM. For the same compound, the Ki came to 0.24 nM in test [2] (read-out: JAK1 Ki) and 1 nM in test [3].
On to `CCn1ccc(-c2ccc(CN3CCC(CC#N)(n4cc(C(N)=O)c(NC(=O)C5CC5)n4)C(F)C3)c(F)c2)n1` (stereo not drawn) [Example 242, 1-[4-(cyanomethyl)-1-[[4-(1-ethylpyrazol-3-yl)-2-fluoro-phenyl]methyl]-3-fluoro-4-piperidyl]-3-(cyclopropanecarbonylamino) pyrazole-4-carboxamide], for which, in test [1] (Homo sapiens, BEAS-2B), the IC50 turned out to be 55 nM. The Ki amounted to 0.6 nM in test [2] (read-out: JAK1 Ki) and 0.51 nM in test [3].
In the case of `N#CCC1(n2cc(C(N)=O)c(NC(=O)C3CC3)n2)CCN(Cc2ccc(-c3ccccc3)cc2)CC1` [Example 6, 1-(1-([1,1′-Biphenyl]-4-ylmethyl)-4-(cyanomethyl)piperidin-4-yl)-3-(cyclopropanecarboxamido)-1H-pyrazole-4-carboxamide], the IC50 in test [1] (Homo sapiens, BEAS-2B) is 31 nM. In addition, the figures for the Ki in test [2] (read-out: JAK1 Ki) and in test [3] were 0.8 nM and 3.6 nM, respectively.
Take `CCc1nc(-c2ccc(CN3CCC(CC#N)(n4cc(C(N)=O)c(NC(=O)OC)n4)C(F)C3)cc2)cs1` (stereo not drawn) [Example 252, methyl N-[4-carbamoyl-1-[4-(cyanomethyl)-1-[[4-(2-ethylthiazol-4-yl)phenyl]methyl]-3-fluoro-4-piperidyl]pyrazol-3-yl]carbamate]: the IC50 in test [1] (Homo sapiens, BEAS-2B) came out at 22 nM. Moreover, the Ki in test [2] (read-out: JAK1 Ki) was 0.3 nM; in test [3] it was 0.52 nM.
Turning to `COC(=O)Nc1nn(C2(CC#N)CCN(Cc3cc(O)c(C)cc3F)CC2F)cc1C(N)=O` (stereo not drawn) [Example 292, methyl N-[4-carbamoyl-1-[4-(cyanomethyl)-3-fluoro-1-[(2-fluoro-5-hydroxy-4-methyl-phenyl)methyl]-4-piperidyl]pyrazol-3-yl]carbamate], the IC50 in test [1] (Homo sapiens, BEAS-2B) was found to be 49 nM. Also, the figures for the Ki in test [2] (read-out: JAK1 Ki) and in test [3] were 0.55 nM and 0.7 nM, respectively.
Turning to `COC(=O)Nc1nn(C2(CC#N)CCN(CC3CCC(c4ccccc4)CC3)CC2F)cc1C(N)=O` (stereo not drawn) [Example 236, methyl N-[4-carbamoyl-1-[4-(cyanomethyl)-3-fluoro-1-[(4-phenylcyclohexyl)methyl]-4-piperidyl]pyrazol-3-yl]carbamate], the IC50 in test [1] turned out to be 19 nM. Moreover, the Ki stood at 0.21 nM in test [2] (read-out: JAK1 Ki) and 1.4 nM in test [3].
